Test results: patent US20230181464A1, “COMPOSITIONS FOR DELIVERY OF BIOACTIVE AGENTS INTO HAIR FOLLICLES” (FOLLICLE PHARMA LTD, priority 2020, published 2023)
Where two headings read alike, the source gives them in different places.

Experiments:
[1] = cited from earlier work
[2] = test system: C57bl mice; experiment: Testosterone-induced alopecia model in mice, hair cover (Example 2); type: in vivo; settings: oral, 100 uL once daily; testosterone-injected mice
[3] = Blood concentration of dutasteride at Day 28 (Example 3); type: in vivo; settings: C57bl, mice, Oral, daily dose 5-10 ug/mouse, read-out: Blood conc (ng/ml) of dutasteride
[4] = test system: C57bl mice; experiment: Testosterone-induced alopecia in mice, hair cover over 28 d (Example 3); type: in vivo; settings: oral once daily
Method: (§1) Hair on the backs of C57bl mice were shaved with electric clippers and subsequent application of ‘hair removal cream’ (Veet, Oxy Reckit Benckiser, Chartes, France). Twenty-four hours following hair removal, mice received daily subcutaneous injections of Testosterone, 1 mg/mouse, at the neck region. Twenty-four hours after the first Testosterone injection mice started receiving treatment as per Table 6 below. Topical formulations were applied onto the entire shaved back skin. The hair cover was analyzed by ImagJ software.

[5] = test system: DHT (dihydrotestosterone); experiment: Skin DHT expression at Day 28 (Example 3); type: in vivo, mice
Method: as §1

[6] = Human, 0.5 mg PO, from the literature; cited from earlier work
[7] = drug substance listed in Table 16

## O=C(OOC(=O)c1ccccc1)c1ccccc1 [Benzoyl peroxide]
[1]; [7]
  logP: LogP 2.75

## C[C@]12C=CC(=O)N[C@@H]1CC[C@@H]1[C@@H]2CC[C@]2(C)[C@@H](C(=O)Nc3cc(C(F)(F)F)ccc3C(F)(F)F)CC[C@@H]12 [dutasteride]
[2]
  % hair cover at 21 days: 30%
[3]
  concentration at 28 day: 39 ng/mL
[4]; Study Day 0
  Group Mean Hair cover (%): 0.0%
[4]; Study Day 7
  Group Mean Hair cover (%): 0.0%
[4]; Study Day 14
  Group Mean Hair cover (%): 2.3%
[4]; Study Day 21
  Group Mean Hair cover (%): 5.2%
[4]; Study Day 28
  Group Mean Hair cover (%): 22.3%
[5]; mice
  DHT expression in the skin (in words): did not exhibit reduced concentrations of DHT in the skin
[5]; skin, oral 5-10 ug/mouse x 1/d
  Mean DHT conc. (nmol/L)/group: 22.91 nmol/L
[6]
  Plasma Concentration of Dutasteride: 23.60 ng/mL

## N#CC[C@H](C1CCCC1)n1cc(-c2ncnc3[nH]ccc23)cn1 [Ruxolitinib]
[1]
  logP: Ruxolitinib logP, 2.48

## C1=C/COCc2cc(ccc2OCCN2CCCC2)Nc2nccc(n2)-c2cccc(c2)COC/1 [Pacritinib]
[1]; [7]
  logP: logP 4.58

## CC(=O)Oc1c(C)c(C)c2c(c1C)CCC(C)(CCC[C@H](C)CCC[C@H](C)CCCC(C)C)O2 (some centres unmarked) [Tocopherol acetate]
[1]; [7]
  logP: acetate LogP 10.8

## CC(C)(C)NC(=O)[C@H]1CC[C@H]2[C@@H]3CC[C@H]4NC(=O)C=C[C@]4(C)[C@H]3CC[C@]12C [Oral finasteride, finasteride]
[2]
  % hair cover at 21 days: 20%

## CCOC(=O)c1ccc(C#Cc2ccc3c(c2)C(C)(C)CCS3)nc1 [Tazarotene]
[1]; [7]
  logP: logP 5.6

## O=C(Nc1c(Cl)cncc1Cl)c1ccc(OC(F)F)c(OCC2CC2)c1 [Roflumilast]
[1]; [7]
  logP: logP 4.47
